Consider twelve compounds from patent US12448388B2, “PRMT5 inhibitors and uses thereof” (Gilead Sciences, Inc., priority 2023, dated 2025).

One may read the half-life as how long it takes for the measured level to halve. By CC50 is commonly meant the concentration giving 50% cytotoxicity. As usually defined, the Papp A→B is the apparent permeability from the apical to the basolateral side of a cell layer.

Where two headings read alike, the source gives them in different places. Bounds are passed on as bounds.

Data set [1] is described as follows: PK data (IV/PO) in cynomolgus monkey. The note with it: in vivo; for clearance: read-out: Observed CL (converted); for Vd: read-out: Vss; for bioavailability: PO 0.5 mg/Kg.
In data set [2] the test system is HCT116 MTAP-deleted cell lines. Put plainly: Cell viability assay (CellTiter-Glo, 7 days), HCT116 MTAP-deleted. The class given is cell-based. The note with it: for Selectivity: HCT116 WT CC50 versus HCT116 MTAP^del CC50; for plasma-adjusted CC50 (paCC50): paCC50 = CC50-HCT116-MTAP^del * (% free CCM/% free human plasma); for CC50: Homo sapiens, HCT116 MTAP-deleted. The essentials:
(§1)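 Read-out was CellTiter-Glo luminescence after a 7-day incubation (37 °C, 5% CO2) of HCT116 cells, MTAP-deleted or WT, on dose-response compound plates. CC50 values come from each line; where marked *, selectivity is overstated because poor solubility impaired the WT CC50 measurement.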
(In general: ATP-based viability assays read luminescence as a measure of living cells.)

Data set [3] can be described thus: MDR1/BCRP assay: permeability in cPgp-KO-MDCK-WT cells. The class given is in vitro ADME. The note with it: dog, pH 7.4. The gist of the method: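 Compounds at 1 μM were dosed apically or basolaterally on 5-day confluent cPgp-KO-MDCK monolayers, HBSS/HEPES/glucose pH 7.4 donor and receiver with 1% BSA, duplicate wells. Receiver samples at 2 h were analysed by LC-MS/MS to give A→B and B→A Papp plus % recovery; TEER confirmed integrity.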

Data set [4] in a line: Cell viability assay (CellTiter-Glo, 7 days), HCT116 WT. The class given is cell-based. The note with it: human, HCT116 WT cells, 7 days of treatment, CTG. The essentials: as §1
[5] abbreviates: HCT-116, * Calculated using Low throughput hEQDS.
Setting [6] is: HCT-116, 168 h, 7 days of treatment, CTG, read-out: CC50-HCT116-MTAP^del.
Where [7] appears, read: HCT-116, cell viability, class symbols, read-out: CC50.
The mark [8] stands for this setting: HCT-116, cell viability assay, class symbols, read-out: CC50.

For `C[C@H]1CN(C(=O)c2cc3c(cc2F)nc(N)c2cncn23)[C@H]2c3ccc(C(F)(F)F)cc3C[C@H]2O1` (single isomer, unassigned) [Ff-81], in data set [1] (IV 0.5 mg/Kg), the half-life is 16 h, the clearance was 3 mL/min/kg and the Vd is 1.77 L/kg. Also, the bioavailability in data set [1] was 123%. Besides, the Selectivity in data set [2] is 71. Further, the plasma-adjusted CC50 (paCC50) in data set [2] (setting [5]) was 591 nM. Besides, in data set [2] (setting [6]), the CC50 amounted to 19 nM. In data set [2] (setting [7]), the CC50 is below 100 nM. The Papp A→B at 2 h, 1 µM in data set [3] stood at 10.5 ×10⁻⁶ cm/s. In data set [4], this compound came in with a cytotoxic concentration (CC50) at 7 days of 1350 nM.

`Nc1nc2cc(F)c(C(=O)N3CCO[C@@H]4Cc5cc(C(F)(F)F)ccc5[C@@H]43)cc2n2cncc12` (single isomer, unassigned) [Ff-82]: the Selectivity in data set [2] is reported as 77. This compound also came in with a plasma-adjusted CC50 (paCC50) in data set [2] (HCT-116) of 408 nM. Further, the CC50 in data set [2] (setting [6]) was 27 nM; in data set [2] (setting [7]), below 100 nM. In addition, in data set [3], the Papp A→B at 2 h, 1 µM amounted to 8.8 ×10⁻⁶ cm/s. For the same compound, in data set [4], the CC50 at 7 days turned out to be 2070 nM.

In data set [2], `C[C@H]1CN(C(=O)c2cc3c(cc2F)nc(N)c2cncn23)[C@H]2c3cc(F)c(C(F)F)cc3C[C@H]2O1` (single isomer, unassigned) [Ff-173] gave a Selectivity of 64. The plasma-adjusted CC50 (paCC50) in data set [2] (HCT-116) was 1160 nM. Further, the results for the CC50 in data set [2] (setting [6]) and in data set [2] (setting [7]) were 35 nM and below 100 nM, respectively. The Papp A→B at 2 h, 1 µM in data set [3] stood at 14.3 ×10⁻⁶ cm/s. In data set [4], the 50% cytotoxic concentration (CC50) at 7 days was determined as 2250 nM.

Take `C[C@@H]1CN(C(=O)c2cc3c(cc2F)nc(N)c2cncn23)[C@H]2c3cc(F)c(OC(F)(F)F)cc3C[C@H]2O1` (single isomer, unassigned) [Ff-197]: the Selectivity in data set [2] amounted to 47. Besides, the plasma-adjusted CC50 (paCC50) in data set [2] (HCT-116) was 217 nM. The CC50 in data set [2] (setting [6]) was 15 nM; in data set [2] (setting [7]) it was below 100 nM. In data set [3], this compound displayed a Papp A→B at 2 h, 1 µM of 16 ×10⁻⁶ cm/s. The compound also registered a half-maximal cytotoxic concentration (CC50) at 7 days in data set [4] of 712 nM.

In data set [2], `Nc1nc2cnc(C(=O)N3CC[C@H]4C[C@@H]3c3c(F)cc(C(F)(F)F)cc3O4)cc2n2cncc12` (single isomer, unassigned) [Ff-694] registered a Selectivity of 72. This compound displayed a plasma-adjusted CC50 (paCC50) in data set [2] (HCT-116) of 120 nM. Also, the 50% cytotoxic concentration (CC50) in data set [2] (setting [6]) was found to be 10 nM. The compound further had a Papp A→B at 2 h, 1 µM in data set [3] of 19.7 ×10⁻⁶ cm/s. Further, the 50% cytotoxic concentration (CC50) at 7 days in data set [4] is 723 nM.

For the compound `Nc1nc2cc(F)c(C(=O)N3CCC[C@@H]4Oc5cc(C(F)(F)F)ccc5[C@@H]43)cc2n2cncc12` [Ff-104, (4-amino-7-fluoroimidazo[1,5-a]quinoxalin-8-yl)((4aS,9bS)-7-(trifluoromethyl)-3,4,4a,9b-tetrahydrobenzofuro[3,2-b]pyridin-1(2H)-yl)methanone], in data set [1] (IV 0.25 mg/Kg), the half-life is 10.4 h, the clearance was 1.67 mL/min/kg and the Vd was found to be 1.47 L/kg. Besides, in data set [1] (IV 0.5 mg/Kg), the half-life is 11 h, the clearance was 3.17 mL/min/kg and the Vd is 1.7 L/kg. In data set [1], the bioavailability came out at 108%. This compound also returned a Selectivity in data set [2] of 94. Moreover, in data set [2] (setting [5]), the plasma-adjusted CC50 (paCC50) was 139 nM. Further, in data set [2] (setting [6]), the CC50 stood at 5 nM. Besides, the 50% cytotoxic concentration (CC50) in data set [2] (setting [7]) was below 100 nM. In addition, in data set [4], the CC50 at 7 days is 470 nM.

For the compound `Nc1nc2cnc(C(=O)N3CCC[C@@H]4Oc5c(ccc(C(F)(F)F)c5F)[C@@H]43)cc2n2cncc12` [Ff-109, (4-aminoimidazo[1,5-a]pyrido[3,4-e]pyrazin-8-yl)((4aS,9bS)-6-fluoro-7-(trifluoromethyl)-3,4,4a,9b-tetrahydrobenzofuro[3,2-b]pyridin-1(2H)-yl)methanone], the Selectivity in data set [2] turned out to be 92. Besides, the plasma-adjusted CC50 (paCC50) in data set [2] (HCT-116) came out at 276 nM. In addition, the half-maximal cytotoxic concentration (CC50) in data set [2] (setting [6]) is 15 nM; in data set [2] (setting [7]), below 100 nM. In addition, the Papp A→B at 2 h, 1 µM in data set [3] was found to be 12.2 ×10⁻⁶ cm/s. For the same compound, in data set [4], the 50% cytotoxic concentration (CC50) at 7 days is 1380 nM.

In turn, `Nc1nc2cnc(C(=O)N3CC[C@H]4C[C@@H]3c3ccc(C(F)(F)F)cc3O4)cc2n2cncc12` [Ff-367, (4-aminoimidazo[1,5-a]pyrido[3,4-e]pyrazin-8-yl)((2S,6R)-9-(trifluoromethyl)-3,4-dihydro-2H-2,6-methanobenzo[b][1,5]oxazocin-5(6H)-yl)methanone] came in with a Selectivity in data set [2] of 77. In data set [2] (HCT-116), the plasma-adjusted CC50 (paCC50) is 199 nM. The cytotoxic concentration (CC50) in data set [2] (setting [6]) is 12 nM; in data set [2] (setting [7]), below 100 nM. For the same compound, in data set [3], the Papp A→B at 2 h, 1 µM turned out to be 13.7 ×10⁻⁶ cm/s. For the same compound, the midpoint of cytotoxicity in data set [4], the CC50 at 7 days, lay at 925 nM.

Take `Cc1ncn2c1c(N)nc1cnc(C(=O)N3CCC[C@@H]4Oc5cc(C(F)(F)F)ccc5[C@@H]43)cc12` [Ff-499, (4-amino-3-methylimidazo[1,5-a]pyrido[3,4-e]pyrazin-8-yl)((4aS,9bS)-7-(trifluoromethyl)-3,4,4a,9b-tetrahydrobenzofuro[3,2-b]pyridin-1(2H)-yl)methanone]: in data set [1] (IV 0.33 mg/Kg), the half-life was 1.39 h, the clearance is 24.5 mL/min/kg and the Vd is 1.93 L/kg. In addition, the Selectivity in data set [2] was determined as 69. Besides, the plasma-adjusted CC50 (paCC50) in data set [2] (HCT-116) worked out at 168 nM. The CC50 in data set [2] (setting [6]) came to 13 nM. The cytotoxic concentration (CC50) in data set [2] (setting [8]) is below 100 nM. In data set [3], this compound returned an apparent permeability from apical to basolateral (Papp A→B) at 2 h, 1 µM of 17.8 ×10⁻⁶ cm/s. In data set [4], this compound showed a CC50 at 7 days of 897 nM.

`Nc1nc2cnc(C(=O)N3CC[C@H]4C[C@@H]3c3ccc(C(F)(F)F)c(F)c3O4)cc2n2cncc12` [Ff-684, (4-aminoimidazo[1,5-a]pyrido[3,4-e]pyrazin-8-yl)((2S,6R)-10-fluoro-9-(trifluoromethyl)-3,4-dihydro-2H-2,6-methanobenzo[b][1,5]oxazocin-5(6H)-yl)methanone] had a Selectivity in data set [2] of 93. In data set [2] (HCT-116), this compound returned a plasma-adjusted CC50 (paCC50) of 465 nM. Besides, the CC50 in data set [2] (setting [6]) is 14 nM; in data set [2] (setting [8]), below 100 nM. For the same compound, in data set [3], the Papp A→B at 2 h, 1 µM turned out to be 10.7 ×10⁻⁶ cm/s. The compound also showed a cytotoxic concentration (CC50) at 7 days in data set [4] of 1310 nM.

As for `Nc1nc2cnc(C(=O)N3CC[C@H]4C[C@@H]3c3ccc(OC(F)(F)F)cc3O4)cc2n2cncc12` [Ff-685, (4-aminoimidazo[1,5-a]pyrido[3,4-e]pyrazin-8-yl)((2S,6R)-9-(trifluoromethoxy)-3,4-dihydro-2H-2,6-methanobenzo[b][1,5]oxazocin-5(6H)-yl)methanone], in data set [2], the Selectivity stood at 71. In data set [2] (HCT-116), this compound gave a plasma-adjusted CC50 (paCC50) of 357 nM. For the same compound, the cytotoxic concentration (CC50) is 16 nM in data set [2] (setting [6]) and below 100 nM in data set [2] (setting [8]). Further, the apparent permeability from apical to basolateral (Papp A→B) at 2 h, 1 µM in data set [3] came to 11.2 ×10⁻⁶ cm/s. Half-maximal cytotoxicity in data set [4] (CC50 at 7 days) was put at 1130 nM.

In data set [2], `[2H]C1([2H])CC[C@@H]2Oc3cc(C(F)(F)F)ccc3[C@@H]2N1C(=O)c1cc2c(cn1)nc(N)c1cncn12` [Fg-60, (4-aminoimidazo[1,5-a]pyrido[3,4-e]pyrazin-8-yl)((4aS,9bS)-7-(trifluoromethyl)-3,4,4a,9b-tetrahydrobenzofuro[3,2-b]pyridin-1(2H)-yl-2,2-d2)methanone] gave a Selectivity of 98. Moreover, the figures for the CC50 in data set [2] (setting [6]) and in data set [2] (setting [8]) were 7 nM and below 100 nM, respectively. In data set [3], this compound displayed a Papp A→B at 2 h, 1 µM of 7 ×10⁻⁶ cm/s. It took 683 nM to reach half-maximal cytotoxicity in data set [4] (CC50 at 7 days).
